Tests used:
[1] = Determination of the distribution coefficients (logD); format: physicochemical; settings: distribution coefficient
[2] = tested on: Enterococcus faecalis (ATCC29212); assay: Broth microdilution MIC, Enterococcus faecalis reference strain; format: cell-based; settings: Enterococcus faecalis ATCC29212, 24 h
Method: The MIC values of the complexes were determined against the reference strains of S. aureus (ATCC29213) and E. faecalis. (ATCC29212) and against clinical VRE and MRSA isolates by microdilution assays (repeated at least twice in duplicates) as described in Materials and Methods. The numbers indicate how many isolates were susceptible to the compound out of those tested; i.e., 1/6 stands for 1 isolate was susceptible out of 6 tested. […] Cells were harvested and lysed. Cellular proteins was separated on a 10% SDS-PAGE gel and were blotted. Blots were probed with 4HNE antibody (top blot), the lower blot was stained with amido black. Arrows point at band of interest. Experiments were repeated three times and a representative blot is shown. On the blots brightness and contrast were adjusted. […] Each was matched to a substance and strain by its position over the x-axis categories. / Ir-7: ND and 0/3 (left plot) and ND and 0/6 (right plot) were matched to E. faecalis/VRE and S. aureus/MRSA by position only.
We used the reference strains of Staphylococcus aureus (ATCC29213), and Enterococcus faecalis (ATCC29212) that were purchased from ATCC (Manassas, VA, United States).
Microdilution experiments were performed according to the standards of EUCAST ([EUCAST, 2021]). […] The inoculated plates were incubated for 24 h at 37°C then were assessed visually. […] All experiments were performed at least twice in duplicates.

[3] = tested on: 4HNE expression in Enterococcus faecalis reference strain; assay: Western blot for 4HNE in Enterococcus faecalis reference strain; format: cell-based; settings: at MIC (Ru-7 5 μM, Os-7 10 µM), 15 min, 30 min, 1 h; band ∼120 kDa
Method: (§1) The MIC values of the complexes were determined against the reference strains of S. aureus (ATCC29213) and E. faecalis. (ATCC29212) and against clinical VRE and MRSA isolates by microdilution assays (repeated at least twice in duplicates) as described in Materials and Methods. The numbers indicate how many isolates were susceptible to the compound out of those tested; i.e., 1/6 stands for 1 isolate was susceptible out of 6 tested. […] Cells were harvested and lysed. Cellular proteins was separated on a 10% SDS-PAGE gel and were blotted. Blots were probed with 4HNE antibody (top blot), the lower blot was stained with amido black. Arrows point at band of interest. Experiments were repeated three times and a representative blot is shown. On the blots brightness and contrast were adjusted. […]
(§2) SDS-polyacrylamide gel electrophoresis and Western blot was performed as in ([Márton et al., 2018]) using an antibody against 4HNE (Abcam (ab46545) 1:1000) that was detected using a corresponding peroxidase-conjugated secondary antibody (1:10000, Cell Signaling Technology, Inc., Beverly, MA, United States). […] ECL and amido black pictures were captured using the ChemiDoc Touch Imaging System (Bio-Rad Laboratories, Inc., Hercules, California, United States) and the pictures were evaluated using the Image Lab software (Bio-Rad).

[4] = tested on: 4HNE formation in Staphylococcus aureus reference strain; assay: Western blot for 4HNE in Staphylococcus aureus reference strain; format: cell-based; settings: at MIC (Ru-7 10 μM, Os-7 20 µM), 15 min, 30 min, 1 h; band ∼50 kDa
Method: as §1, §2

Structure (SMILES)	LogD [1]	MIC, Reference E. faecalis [2] [µM]	4HNE expression in Enterococcus faecalis reference strain [3]	4HNE formation in Staphylococcus aureus reference strain [4]
Cc1ccc(C(C)C)cc1.F[P-](F)(F)(F)(F)F.O=C(OCC1OC(n2cc(-c3ccc4ccccc4n3)nn2)C(OC(=O)c2ccccc2)C(OC(=O)c2ccccc2)C1OC(=O)c1ccccc1)c1ccccc1.[Cl][Os+] (mixture of isomers) [Os-7]	2.33	10	induced 4HNE expression	induced 4HNE formation
Cc1ccc(C(C)C)cc1.F[P-](F)(F)(F)(F)F.O=C(OCC1OC(n2cc(-c3ccc4ccccc4n3)nn2)C(OC(=O)c2ccccc2)C(OC(=O)c2ccccc2)C1OC(=O)c1ccccc1)c1ccccc1.[Cl][Ru+] (mixture of isomers) [Ru-7]		5	induced 4HNE expression	induced 4HNE formation

From publication PMC9923724, “Half sandwich-type osmium, ruthenium, iridium and rhodium complexes with bidentate glycosyl heterocyclic ligands induce cytostasis in platinum-resistant ovarian cancer cells and bacteriostasis in Gram-positive multiresistant bacteria” (Frontiers in Chemistry, 2023)
